{"source": "patent US20240315246A1", "about": "“METHOD OF USING SIMAZINE FOR CONTROLLING ANNUAL BLUEGRASS IN COOL SEASON-TURFGRASSES” (priority 2023, published 2024)", "key": {"[1]": {"test_system": "cool-season turfgrass species", "assay": "Margin of safety on desired cool-season turfgrass species", "details": "in vivo"}, "[2]": {"test_system": "annual bluegrass (Poa annua)", "assay": "Field trial: control of annual bluegrass in ryegrass turf", "assay_type": "in vivo", "method": "Unless noted otherwise, the data and results shown herein are from trials performed in Phoenix, AZ and would be representative of application of the methods described herein in a hot climate. […] The tests were conducted according to standards required by the U.S. Environmental Protection Agency for evaluating herbicides.\nFIG. 1A depicts a ryegrass/annual bluegrass turf test area that was subjected to four treatments. Initial treatments were made in December. Treatment area #1 received a low application rate (0.25 lb AI/A) of Simazine followed by a second low rate application one month later. Treatment area #2 received two medium rate (0.5 lb AI/A) applications on the same schedule as treatment area #1. Treatment area #3 received a single medium rate application. Treatment area #4 received no Simazine applications. The test area was evaluated 90 days after the first application as shown in FIG. 1A and the quantification data is presented in FIG. 1B.\nFIG. 2B represents a single application at 0.75 lb AI/A using the 90DF formulation. […] FIG. 3A compares single application of application rates of 0.25 lb AI/A, 0.5 lb AI/A, 0.75 lb AI/A, and 1.0 lb AI/A at 86 days after treatment. FIG. 3B quantifies the percentage of annual bluegrass coverage on the test turf at 79 days after treatment."}, "[3]": {"test_system": "Poa annua", "assay": "Field trial: control of Poa annua in turf comprising cool-season turfgrasses, multiple low-rate applications", "assay_type": "in vivo", "details": "multiple applications at rates as low as 0.05 lbs AI/A; no photo documentation", "method": "(§1) Unless noted otherwise, the data and results shown herein are from trials performed in Phoenix, AZ and would be representative of application of the methods described herein in a hot climate. However, Simazine is effective in management of annual bluegrass infestation in a turf comprising cool-season turfgrass species in cool, high-altitude climates as well as in hot climates (see FIG. 10). The tests were conducted according to standards required by the U.S. Environmental Protection Agency for evaluating herbicides.\nHowever, multiple applications of lower rates may provide greater safety to the ryegrass than a higher rate single application even though both may effectively control the annual bluegrass (FIGS. 4A-6B). Multiple applications of Simazine at lower rates reduce the risk of overdosing the desirable cool-season turfgrass due to application overlaps, which occur often during turf treatments."}, "[4]": {"test_system": "annual bluegrass (Poa annua)", "assay": "Field trial: control of annual bluegrass in bentgrass turf", "assay_type": "in vivo", "description": "Bentgrass turfgrass species are more sensitive to Simazine application than ryegrass. […] While there was still a large presence of annual bluegrass at 13 days after treatment, the patch of annual bluegrass is visibly ill (FIG. 7A)."}, "[5]": {"test_system": "annual bluegrass (Poa annua)", "assay": "Suppression of annual bluegrass flowers and seedheads in ryegrass turf", "assay_type": "in vivo", "description": "The test turfs shown in FIGS. 9A and 9B are ryegrass turfs infested with Poa annua that received two applications of Simazine at a rate of 0.25 lb AI/A per application.\nHowever, applying a sub-lethal dosage of Simazine in relation to annual bluegrass still improves the quality of the turf comprising cool-season turfgrasses. Using applications that are sub-lethal to annual bluegrass (at least in the near term), simazine treatment suppresses the production of annual bluegrass flowers and seedheads rendering the turf more desirable.\nThe #1 plot in FIG. 8A was treated with Simazine (0.25 lb AI/A). […] The other areas were untreated and the annual bluegrass there produced prolific flowers and seedheads. FIGS. 9A and 9B show multiple applications made to ryegrass turf infested with Poa annua."}, "[6]": {"test_system": "annual bluegrass (Poa annua)", "assay": "Co-administration with ryegrass-weakening herbicides A and B on ryegrass turf infested with Poa annua", "assay_type": "in vivo", "details": "Simazine mixed with herbicide A or B; 60 days after treatment", "description": "Herbicides A and B were applied at low dosages to weaken the existing ryegrass turf which was infested with Poa annua. Poa annua is not sensitive to either A or B. As shown in the untreated section, Poa annua would otherwise proliferate during the herbicidal treatment at 60 days after treatment, but co-administration with Simazine prevents Poa annua proliferation during the herbicidal treatment.\nBecause annual bluegrass is not sensitive to certain herbicides used for weakening existing ryegrass, treatment with such herbicides may not be beneficial in removing the turf as the annual bluegrass would proliferate in the area. However, mixing Simazine with herbicides improves the results of the herbicidal treatments in turf removal. […] Annual bluegrass is not sensitive to either herbicide."}, "[7]": {"test_system": "ryegrass", "description": "For example, when converting from overseeded ryegrass turf to perennial bermudagrass in the spring season, sublethal doses of Sapphire herbicide (or other ryegrass-removal herbicides) are applied to cause the ryegrass to slowly fade away. […] In other aspects, a method of enhancing color and quality of a turf including the cool-season turfgrass species comprises co-administering Simazine with Penoxsulam or other ryegrass-removal herbicides to the turf comprising the cool-season turfgrass species. In such implementations, a sub-lethal dosage application of Simazine in relation to the desirable cool-season turfgrass species is co-administered with Penoxsulam or other ryegrass-removal herbicides."}, "[8]": {"test_system": "ryegrass", "assay": "Safety to ryegrass seeded after treatment of bermudagrass turf", "assay_type": "in vivo", "details": "applied four days prior to planting ryegrass; 43 days after seeding", "description": "Simazine may also be applied during the transition of a turf from warm-season turfgrass species to cool-season turfgrass species. Simazine is not injurious to desired cool-season turfgrasses when applied prior to planting seed. FIG. 11A show soon-to-be-dormant bermudagrass turf treated with simazine four days prior to planting ryegrass into the turf."}, "[9]": {"test_system": "seashore Paspalum (Paspalum vaginatum)", "assay": "Selective control of seashore Paspalum in bermudagrass turf", "assay_type": "in vivo", "details": "single application 0.5 lb AI/A", "description": "(§2) Bermudagrass and seashore Paspalum (Paspalum vaginatum) are both warm-season turfgrasses. However, when one species is desired, often the other species is found to contaminate the desired species. When seashore Paspalum contaminates bermudagrass, the result is undesirable. It was discovered that Simazine may be used to selectively remove the seashore Paspalum because bermudagrass is much more tolerant of Simazine than is seashore Paspalum."}, "[10]": {"test_system": "bermudagrass", "assay": "Tolerance of bermudagrass turf", "assay_type": "in vivo", "details": "single application 0.5 lb AI/A", "description": "as §2"}, "[11]": {"test_system": "annual bluegrass", "assay": "Test turf in a cool high-altitude climate", "assay_type": "in vivo, Poa annua", "method": "FIG. 10 is a photograph of a test turf in a cool high-altitude climate.\nas §1"}, "[12]": {"details": "ryegrass turf, two applications of 0.25 lb AI/A (FIGS. 9A, 9B)"}}, "data": [{"smiles": "CCNc1nc(Cl)nc(NC(C)C)n1", "note": "[atrazine]", "values": [{"measurement": "margin of safety on desired cool-season turfgrass species, compared with Simazine", "setting": "[1]", "value": "lesser margin of safety"}]}, {"smiles": "CCNc1nc(Cl)nc(NCC)n1", "note": "[Simazine, 6-chloro-2-N,4-N-diethyl-1,3,5-triazine-2,4-diamine]", "values": [{"measurement": "selective control of annual bluegrass", "setting": "[2]; another site, single application 1.0 lb AI/A, 4 L formulation", "value": "selective control of annual bluegrass"}, {"measurement": "annual bluegrass coverage on the test turf", "setting": "[2]; single application 0.25 lb AI/A, 79 days after treatment, untreated over 80%", "value": 50, "unit": "%"}, {"measurement": "visual presence of annual bluegrass within the treated turf", "setting": "[2]; single application 1.0 lb AI/A, 79 days after treatment", "value": "effectively removed visual presence of any annual bluegrass"}, {"measurement": "control of Poa annua", "setting": "[3]", "value": "successfully controlled Poa annua"}, {"measurement": "condition of annual bluegrass patch", "setting": "[4]; 0.5 lb AI/A, 13 days after treatment", "value": "visibly ill"}, {"measurement": "coverage of the test area with annual bluegrass", "setting": "[4]; 0.5 lb AI/A, 38 days after treatment", "value": "significantly reduced"}, {"measurement": "control of annual bluegrass infestation", "setting": "[4]; application at 0.5 lb AI/A", "value": "effectively controlled annual bluegrass infestation"}, {"measurement": "flowering and seedhead production in surviving annual bluegrass", "setting": "[5]; plot #1 FIG. 8A, 0.25 lb AI/A", "value": "suppressed"}, {"measurement": "kill of annual bluegrass", "setting": "[5]; plot #1 FIG. 8A, 0.25 lb AI/A", "value": "only a portion of the annual bluegrass was killed"}, {"measurement": "formation of flowers and seedheads", "setting": "[5]; [12]", "value": "greatly suppressed"}, {"measurement": "kill of Poa annua", "setting": "[5]; [12]", "value": "did not kill the Poa annua"}, {"measurement": "annual bluegrass proliferation during herbicidal treatment", "setting": "[6]", "value": "without allowing annual bluegrass to proliferate"}, {"measurement": "colour of treated ryegrass versus untreated", "setting": "[7]; single application, 1.0 and 0.75 lb AI/A (FIGS. 2A, 2B)", "value": "deeper green color"}, {"measurement": "colour and quality of ryegrass turf during conversion to bermudagrass", "setting": "[7]; sub-lethal Simazine about 0.25 AI/A included with Sapphire treatment", "value": "enhances the color and quality of the ryegrass turf"}, {"measurement": "effect on young ryegrass", "setting": "[8]", "value": "did not affect the young ryegrass"}, {"measurement": "control of seashore Paspalum", "setting": "[9]", "value": "eradicate seashore Paspalum"}, {"measurement": "damage to bermudagrass", "setting": "[10]", "value": "not damaging bermudagrass"}, {"measurement": "turf colour compared to untreated turf", "setting": "[11]", "value": "darker green color"}, {"measurement": "control of annual bluegrass infestation", "setting": "[11]; effective dose specific to the climate", "value": "control of annual bluegrass infestation"}]}, {"smiles": "COc1cnc(OC)n2nc(NS(=O)(=O)c3c(OCC(F)F)cccc3C(F)(F)F)nc12", "note": "[Sapphire, 2-(2,2-difluoroethoxy)-N-(5,8-dimethoxy-[1,2,4]triazolo[1,5-c]pyrimidin-2-yl)-6-(trifluoromethyl)benzenesulfonamide]", "values": [{"measurement": "colour and quality of ryegrass during conversion to bermudagrass", "setting": "[7]; sublethal doses of ryegrass-removal herbicide alone", "value": "degrades the color and quality of the ryegrass"}]}]}
